IC50 data for twelve compounds are collected here from patent US8088930B2, “Benzimidazole derivatives” (Hoffmann-La Roche Inc., priority 2008, dated 2012).

For the first test, the target named is T1, FXR ligand binding domain (GST-FXR LBD fusion protein, human FXR aa 193-473) (Homo sapiens, UniProt Q96RI1).
T1 construct: fused on or other part: Glutathione-S-transferase (GST) fused N-terminally to the FXR LBD, used to capture the protein on glutathione SPA beads
T1 sequence (Q96RI1 211-486 limits assumed): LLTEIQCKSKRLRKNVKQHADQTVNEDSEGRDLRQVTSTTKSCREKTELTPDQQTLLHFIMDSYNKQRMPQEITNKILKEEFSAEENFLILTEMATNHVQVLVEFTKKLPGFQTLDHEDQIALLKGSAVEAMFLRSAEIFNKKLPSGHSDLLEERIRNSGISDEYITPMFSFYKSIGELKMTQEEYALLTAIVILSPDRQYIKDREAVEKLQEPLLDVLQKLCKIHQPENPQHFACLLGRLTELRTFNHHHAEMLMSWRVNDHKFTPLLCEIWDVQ
Put plainly: Radioligand binding assay (scintillation proximity, radioligand displacement). The following applies: 40 nM GST-FXR LBD on SPA beads, test compound 6×10^−9 M to 2.5×10^−5 M, read-out: h-IC50 Binding. The procedure, abridged:
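40 nM GST-FXR LBD, E. coli-expressed, bound to glutathione yttrium silicate SPA beads in 50 mM Hepes pH 7.4, 10 mM NaCl, 5 mM MgCl2, 0.01% CHAPS. Test compounds displace radioligand (e.g. 20 nM benzimidazolyl-acetamide ligand); bound ligand measured by scintillation proximity counting.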
A general note: Scintillation proximity formats need no separation of bound from free tracer.
For orientation: IC50 means the midpoint of a concentration-inhibition curve. Consider `O=C(O)c1ccc(COCC(C2CCCCC2)n2c(-c3ccc(Cl)cc3)nc3cc(F)c(F)cc32)c(F)c1` (stereo not drawn) [Example 59, 4-{2-[2-(4-Chloro-phenyl)-5,6-difluoro-benzoimidazol-1-yl]-2-cyclohexyl-ethoxymethyl}-3-fluoro-benzoic], for which the IC50 was 60 nM. Turning to `COc1ccc(-c2nc3cc(F)c(F)cc3n2C(COc2c(C)cc(-c3nnn[nH]3)cc2C)C2CCCCC2)c(OC)n1` (single isomer, unassigned; (-)) [Example 101, (−)-1-{1-Cyclohexyl-2-[2,6-dimethyl-4-(1H-tetrazol-5-yl)-phenoxy]-ethyl}-2-(2,6-dimethoxy-pyridin-3-yl)-5,6-difluoro-1H-benzoimidazole], the IC50 is 0.2 nM. As to `O=C(O)c1ccccc1OCC(C1CCCCC1)n1c(-c2ccc(Cl)cc2)nc2cc(F)c(F)cc21` (stereo not drawn) [Example 14, 2-{2-[2-(4-Chloro-phenyl)-5,6-difluoro-benzoimidazol-1-yl]-2-cyclohexyl-ethoxy}-benzoic acid], the IC50 was 2000 nM.

For the compound `O=C(O)c1cc(F)c(OCC(C2CCCCC2)n2c(-c3ccc(Cl)cc3)nc3ccccc32)c(F)c1` (stereo not drawn) [Example 102, 4-{2-[2-(4-Chloro-phenyl)-benzoimidazol-1-yl]-2-cyclohexyl-ethoxy}-3,5-difluoro-benzoic acid], the IC50 is 30 nM.

With `O=C(O)c1cc(F)c(OCC(C2CCCCC2)n2c(-c3ccc(Cl)cc3)nc3ccccc32)c(Cl)c1` (stereo not drawn) [Example 108, 3-Chloro-4-{2-[2-(4-chloro-phenyl)-benzoimidazol-1-yl]-2-cyclohexyl-ethoxy}-5-fluoro-benzoic acid], the IC50 was 10 nM.

Take `O=C(O)C1(Oc2ccc(OCC(C3CCCCC3)n3c(-c4ccc(Cl)cc4)nc4cc(F)c(F)cc43)cc2)CC1` (stereo not drawn) [Example 120, 1-(4-{2-[2-(4-Chloro-phenyl)-5,6-difluoro-benzoimidazol-1-yl]-2-cyclohexyl-ethoxy}-phenoxy)-cyclopropanecarboxylic acid]: the IC50 turned out to be 30 nM.

For `Cc1cc(-c2nnn[nH]2)cc(C)c1OCC(C1CCCCC1)n1c(-c2ccc(Cl)cc2)nc2ccccc21` (single isomer, unassigned; (-)) [Example 112, (−)-2-(4-Chloro-phenyl)-1-{1-cyclohexyl-2-[2,6-dimethyl-4-(1H-tetrazol-5-yl)-phenoxy]-ethyl}-1H-benzoimidazole], the IC50 came out at 110 nM. On to `O=C(O)c1cc(F)c(OCC(C2CCCCCC2)n2c(-c3ccc(Cl)cc3)nc3cc(F)c(F)cc32)c(F)c1` (single isomer, unassigned; (+)) [Example 133, (+)-4-{2-[2-(4-Chloro-phenyl)-5,6-difluoro-benzoimidazol-1-yl]-2-cycloheptyl-ethoxy}-3,5-difluoro-benzoic acid], for which the IC50 came out at 10 nM.

On to `Cc1nc(C(=O)O)ncc1OCC(C1CCCCC1)n1c(-c2ccc(Cl)cc2)nc2cc(F)c(F)cc21` (stereo not drawn) [Example 25, 5-{2-[2-(4-Chloro-phenyl)-5,6-difluoro-benzoimidazol-1-yl]-2-cyclohexyl-ethoxy}-4-methyl-pyrimidine-2-carboxylic acid], for which the IC50 came to 800 nM. On the same count and under the same terms, the figure for `COc1cc(C(=O)O)ccc1COCC(C1CCCCC1)n1c(-c2ccc(Cl)cc2)nc2cc(F)c(F)cc21` (stereo not drawn) [Example 60, 4-{2-[2-(4-Chloro-phenyl)-5,6-difluoro-benzoimidazol-1-yl]-2-cyclohexyl-ethoxymethyl}-3-methoxy-benzoic acid] is 500 nM.

The test is the same for the next values; noted with them: h-IC50 Binding, 40 nM GST-FXR LBD on SPA beads, test compound 6×10^−9 M to 2.5×10^−5 M.
The compound `O=C(O)COc1ccc(OCC(C2CCCCC2)n2c(-c3ccc(Cl)cc3)nc3cc(F)c(F)cc32)cc1` (stereo not drawn) [Example 91, (4-{2-[2-(4-Chloro-phenyl)-5,6-difluoro-benzoimidazol-1-yl]-2-cyclohexyl-ethoxy}-phenoxy)-acetic acid] came in with an IC50 of 60 nM. For `O=C(O)c1ccc(OCC(C2CCCCC2)n2c(-c3ccc(Cl)cc3)nc3cc(F)c(F)cc32)c(F)c1` (single isomer, unassigned; (-)) [Example 8, (−)-4-{2-[2-(4-Chloro-phenyl)-5,6-difluoro-benzoimidazol-1-yl]-2-cyclohexyl-ethoxy}-3-fluoro-benzoic acid], the IC50 worked out at 20 nM.
